Data on eight compounds can be found in ChEMBL document CHEMBL1201862, “PubChem BioAssay data set” (2004).

Each structure is given as a SMILES string.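 Cells were grown in 96-well plates and exposed to each compound for 48 hours at five concentrations; endpoints were interpolated linearly between bracketing concentrations, or set to the highest concentration if not reached. At the GI50, growth is halved.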 Active and inactive are the calls of the source. Cut-off read from the data, not from the text of the source: active = GI50 up to about 1.1 µM and inactive = higher. Where only a bound is given, the exact number is not on record here.

Among the test systems are PC-3; MDA-MB-435; BT-549; SK-MEL-28; RPMI-8226; SW-620; HCT-15; IGROV-1; HT-29; K562; LOX IMVI; SNB-75; NCI/ADR-RES; HL-60; MCF7; SK-MEL-2; NCI-H522; HCC 2998; NCI-H226.
Test in all cases: NCI tumour cell line growth inhibition, 48 h

For `CN(CCCNC(=O)c1nn(C)c2c1Cc1ccccc1-2)CCCNC(=O)c1nn(C)c2c1Cc1ccccc1-2`, the GI50 is 16.2 µM (inactive) with PC-3; 10.8 µM (inactive) with MDA-MB-435; 21 µM (inactive) with BT-549; 20.1 µM (inactive) with SK-MEL-28; 13.3 µM (inactive) with RPMI-8226; 10.1 µM (inactive) in the assay with SW-620. In addition, the GI50 with HCT-15 was 17.7 µM; with IGROV-1, 15.3 µM (inactive); in the assay with HT-29, 13.3 µM (inactive); in the assay with K562, 7.94 µM (inactive); in the assay with LOX IMVI, 2.49 µM (inactive); with SNB-75, 15.2 µM (inactive). The GI50 in the assay on NCI/ADR-RES was 24.4 µM (inactive); in the assay on HL-60 it was 5.28 µM (inactive); in the assay with MCF7 it was 15 µM (inactive); in the assay on SK-MEL-2, 16 µM (inactive); in the assay on NCI-H522, 21.8 µM (inactive); in the assay on HCC 2998, 8.22 µM (inactive).

Consider `Oc1c(-c2ccccc2)sc2ccccc12`, for which the GI50 is 18.7 µM (inactive) in the assay with PC-3; 31.6 µM (inactive) in the assay on MDA-MB-435; 28.1 µM (inactive) with BT-549; 68.9 µM (inactive) in the assay with SK-MEL-28; 8.63 µM (inactive) in the assay with RPMI-8226; 48.3 µM (inactive) in the assay on SW-620. For the same compound, the GI50 in the assay with NCI-H226 is 16.4 µM (inactive); in the assay with HCT-15, 31.9 µM; in the assay on IGROV-1, 27.5 µM (inactive); in the assay with HT-29, 31.3 µM (inactive); with K562 it was 13.7 µM (inactive); with LOX IMVI, 15.5 µM (inactive). Also, the GI50 with SNB-75 is 12.4 µM (inactive); in the assay with NCI/ADR-RES, 34 µM (inactive); in the assay with HL-60 it was 22.6 µM (inactive); with MCF7, 33.3 µM (inactive); in the assay with SK-MEL-2, 10.8 µM (inactive); with NCI-H522, 27.9 µM (inactive). The GI50 in the assay on HCC 2998 was 17.1 µM (inactive).

For the compound `COc1ccc2c(c1)C1c3ccccc3CCN1CCC2` (stereo not given), the GI50 with PC-3 was 29.2 µM (inactive); with MDA-MB-435, 19.9 µM (inactive); in the assay on BT-549 it was 24.9 µM (inactive); in the assay on SK-MEL-28 it was 74 µM (inactive); in the assay with RPMI-8226, 28.8 µM (inactive); with SW-620, 28.2 µM (inactive). The GI50 with NCI-H226 was 45.3 µM (inactive); in the assay on HCT-15, 39.4 µM; with IGROV-1, 56.6 µM (inactive); in the assay on HT-29, 33.3 µM (inactive); with K562, 33 µM (inactive); in the assay on LOX IMVI, 44.7 µM (inactive). Also, the GI50 was 19.3 µM (inactive) in the assay with SNB-75; 31.2 µM (inactive) with NCI/ADR-RES; 41.1 µM (inactive) in the assay on MCF7; 23.1 µM (inactive) with SK-MEL-2; 28.4 µM (inactive) in the assay on NCI-H522; 23.4 µM (inactive) in the assay on HCC 2998.

With `Cc1ccc(-c2n[nH]c(=O)n2N2C(=O)C=CC2=O)cc1`, the GI50 in the assay with PC-3 was > 100 µM (inactive); in the assay on MDA-MB-435, > 100 µM (inactive); in the assay on BT-549, > 100 µM (inactive); in the assay with NCI-H226, > 100 µM (inactive); with HCT-15, above 100 µM; in the assay on IGROV-1, > 100 µM (inactive). For the same compound, the GI50 with HT-29, with K562, in the assay on NCI/ADR-RES, in the assay on HL-60, with MCF7 and with SK-MEL-2 was > 100 µM (inactive) throughout. For the same compound, the GI50 in the assay with NCI-H522 and in the assay on HCC 2998 was > 100 µM (inactive) in each case.

With `CN1CC[C@]23c4c5ccc(O)c4OC2c2[nH]ncc2C[C@H]3[C@H]1C5` (stereo not given in full), the GI50 in the assay with PC-3, in the assay with MDA-MB-435, in the assay on BT-549, in the assay with SK-MEL-28, in the assay with RPMI-8226 and in the assay with NCI-H226 was > 100 µM (inactive) throughout. In addition, the GI50 in the assay with HCT-15 is above 100 µM; in the assay on IGROV-1 it was > 100 µM (inactive); in the assay with HT-29, > 100 µM (inactive); in the assay with K562, > 100 µM (inactive); in the assay on LOX IMVI, > 100 µM (inactive); in the assay with SNB-75, 94.6 µM (inactive). Besides, the GI50 in the assay with NCI/ADR-RES, with HL-60, with MCF7, in the assay on SK-MEL-2, in the assay on NCI-H522 and in the assay on HCC 2998 was > 100 µM (inactive) each time.

On to `CCOC(=O)CCC(NC(=O)Cc1ccc(Oc2nc3ccccc3nc2-c2cccs2)cc1)C(=O)OCC` (stereo not given), for which the GI50 in the assay with PC-3 is 80.2 µM (inactive); in the assay on MDA-MB-435 it was 88.7 µM (inactive); in the assay on BT-549, 29.7 µM (inactive); in the assay with SK-MEL-28 it was > 100 µM (inactive); in the assay with RPMI-8226, > 100 µM (inactive); in the assay with SW-620, > 100 µM (inactive). Moreover, the GI50 with NCI-H226 is 16.6 µM (inactive); in the assay on HCT-15, above 100 µM; in the assay with IGROV-1 it was 47.5 µM (inactive); with HT-29, > 100 µM (inactive); in the assay with K562, > 100 µM (inactive); in the assay with LOX IMVI, 20.7 µM (inactive). Also, the GI50 with NCI/ADR-RES was 4.95 µM (inactive); in the assay on HL-60, > 100 µM (inactive); with MCF7, > 100 µM (inactive); in the assay on SK-MEL-2, 56.5 µM (inactive); with NCI-H522, 52 µM (inactive); in the assay with HCC 2998, 32.2 µM (inactive).

In the case of `C(=C\c1cc[n+](CCc2ccccc2)cc1)/c1ccccc1`, the GI50 in the assay on PC-3 is 15.2 µM (inactive); in the assay on MDA-MB-435 it was 4.98 µM (inactive); in the assay on BT-549 it was 11.3 µM (inactive); in the assay with SK-MEL-28 it was 10.6 µM (inactive); in the assay on RPMI-8226 it was 5.45 µM (inactive); with SW-620, 12.1 µM (inactive). Besides, the GI50 is 13.8 µM (inactive) with NCI-H226; above 100 µM with HCT-15; 31.7 µM (inactive) in the assay with IGROV-1; 6.79 µM (inactive) in the assay on HT-29; 16.8 µM (inactive) with K562; 17.5 µM (inactive) in the assay with LOX IMVI. The GI50 with SNB-75 was 24 µM (inactive); in the assay on NCI/ADR-RES it was > 100 µM (inactive); in the assay on MCF7, 9.16 µM (inactive); in the assay on SK-MEL-2 it was 17.1 µM (inactive); in the assay on NCI-H522, 14.7 µM (inactive).

For the compound `NC(=O)C1CCN(Cc2c(Cl)c(Cl)c(CN3CCC(C(N)=O)CC3)c(Cl)c2Cl)CC1`, the GI50 in the assay with PC-3, in the assay on MDA-MB-435, in the assay with BT-549, in the assay on SK-MEL-28, in the assay on RPMI-8226 and in the assay with SW-620 was > 100 µM (inactive) throughout. The GI50 in the assay with NCI-H226 was > 100 µM (inactive); in the assay with HCT-15, above 100 µM; in the assay on HT-29, > 100 µM (inactive); in the assay on K562, > 100 µM (inactive); in the assay on LOX IMVI, > 100 µM (inactive); with SNB-75, 24.3 µM (inactive). For the same compound, the GI50 with NCI/ADR-RES is > 100 µM (inactive); in the assay on HL-60, > 100 µM (inactive); in the assay with MCF7 it was > 100 µM (inactive); with SK-MEL-2, 42.9 µM (inactive); with NCI-H522, > 100 µM (inactive); with HCC 2998, > 100 µM (inactive).
